Data published in paper PMC9732821, “Neurotrophic Activity and Its Modulation by Zinc Ion of a Dimeric Peptide Mimicking the Brain-Derived Neurotrophic Factor N-Terminal Region” (ACS Chemical Neuroscience, 2022).

Tested on: ERK
Test: ERK phosphorylation, in cell ELISA in differentiated SH-SY5Y cells
Assay type: cell-based, human
Conditions: for ERK phosphorylation increase vs unstimulated control: 10 min, 150 ng/mL BDNF or 10 μM peptide, three independent replicas in duplicate; for EC50 / maximal effect (Emax) of ERK phosphorylation: dose–response, differentiated SH-SY5Y, two independent replicas in duplicate; for maximal effect (Emax) of ERK phosphorylation: BDNF and d-bdnf not significantly different
Description: Figure 1 Activation of the TrkB receptor by BDNF and its mimetic peptide ligands. (A) Schematic picture of the human TrkB receptor fused to the EGFP construct (hTrkB-EGFP); recombinant human mature BDNF (hBDNF); monomeric peptide, m-bdnf; dimeric peptide, d-bdnf; scrambled s-bdnf. (B) WB showing Tyr phosphorylation (p-Tyr, top) and total TrkB levels (bottom) in SH-SY5Y cells transfected with hTrkB-EGFP in the absence (ctrl) or presence of 10 min stimulation with 150 ng/mL BDNF or 10 μM m-bdnf, d-bdnf, or s-bdnf. Samples were immunoprecipitated (IP) with the anti-GFP antibody before WB. The relative density of the bands is reported on the right of the blots, as mean ± SEM of five (BDNF) and four (peptides) independent replicas; each p-Tyr band density was divided for the respective TrkB band and normalized to the ctrl signal (***p < 0.001, *p < 0.05 vs ctrl, according to one-way ANOVA with Bonferroni’s multiple comparison test). (C) Scatter dot plot of ERK (left) and AKT (right) phosphorylation levels detected in differentiated SH-SY5Y cells, after stimulation with the same treatments as in (B). Phosphorylation levels were normalized to the cell number and reported as percentage versus the ctrl. Data ± SD were pooled from three independent replicas performed in duplicate. (D) ERK phosphorylation dose–response curve of BDNF and d-bdnf. Data ± SEM were pooled from two independent replicas performed in duplicate. (E) Intensity image of a TrkB-EGFP transfected cell (scale bar 10 μm). White square defines a region of the image that contains both the cell membrane and the background signal. […] The dashed black lines identify the mean values of B for the monomer and the dimer, as indicated. (G) Bar graph of mean ± SD ‘B-1’ values retrieved from N&B analysis for all the different conditions measured. The horizontal dashed lines indicate the ‘B-1’ average values assigned to the monomer (based on data from f-EGFP) and the dimer. Data (round circles) were pooled from two independent experiments. A one-way ANOVA with Dunnett’s multiple comparisons test was applied to compare data to the f-EGFP reference (*p < 0.05, ***p < 0.001, ****p < 0.0001). […]
ERK and AKT phosphorylation were assessed in a 96-well plate format, performing an in cell ELISA assay as previously described 4. SH-SY5Y or HEK 293T cells were seeded at a density of 5.000 and 80.000 cell/well in 96 multiwell respectively, and the former were differentiated as describe above.
Cells were treated as described for TrkB phosphorylation or reported in the graphs, then washed with 0.1% Triton X-100 in PBS and fixed with 4% paraformaldehyde. Cells were then permeabilized (1% BSA; 0.1% Triton X-100 in PBS) for 1 hour, at the end, cells were incubated overnight at 4°C with anti-phospho ERK (1:500, sc-7383, Santa Cruz) or phosphor AKT (1:500, sc-16646-R-, Santa Cruz) antibodies. Next day, after the incubation with HRP-conjugated secondary antibody (anti-mouse # 31430, Invitrogen; anti-rabbit A0545, Sigma-Aldrich) the TMB substrate was added and the absorbance was read at 450 nm. Cells were incubated with only the secondary antibody to obtain the aspecific binding (Blanks). The absorbances were normalized to the relative number of cells in each well that was determined using Crystal Violet staining. […]
°C with chicken anti-BDNF (1:100, G164A Promega) antibody diluted in 2.5% BSA/PBS. The next morning samples were incubated with an Alexa568-conjugated anti-chicken secondary antibody (1:500, Thermofisher) in 2.5% BSA/PBS for 2h at room temperature. Coverslips were mounted with Fluoroshield-DAPI (Sigma-Aldrich) and imaged with a laser scanning confocal microscope (Nikon A1, Eclipse Ti), using a 60× oil objective (NA 1 .40) and pinhole set to 1 AU. Images were acquired […]
nm laser (emission window 545-645 nm). BDNF fluorescence intensity was analysed using FIJI ImageJ software. Briefly, the background intensity was subtracted from all red channel fields and an […]

| Molecule | EC50 [µM] | EC50 (referred to the monomer form) [µM] | ERK phosphorylation increase vs unstimulated control | maximal effect (Emax) of ERK phosphorylation |
| --- | --- | --- | --- | --- |
| SRAGPHLRDVSE-NH2 [s-bdnf] | – | – | only BDNF and d-bdnf were able to induce a significant ERK and AKT phosphorylation increase | – |
| HSDPARRGELSV-NH2 [m-bdnf, linear peptide fragment encompassing the first 12 amino acids of the mature NT N-terminal] | – | – | only BDNF and d-bdnf were able to induce a significant ERK and AKT phosphorylation increase | – |

More lines, main results first:

| EC50 [µM] | EC50 (referred to the monomer form) [µM] | Molecule | ERK phosphorylation increase vs unstimulated control | maximal effect (Emax) of ERK phosphorylation |
| --- | --- | --- | --- | --- |
| 13.6 ± 3.87 | – | HSDPARRGELSVC-C-VSLEGRRAPDSH (disulfide) [d-bdnf] | significant ERK and AKT phosphorylation increase | 227.3 ± 6.3 |
| – | 0.00069 ± 0.00024 | brain-derived neurotrophic factor (protein, UniProt P23560 1-247, looked up, full-length, full-length human BDNF produced recombinantly in Escherichia coli) MTILFLTMVISYFGCMKAAPMKEANIRGQGGLAYPGVRTHGTLESVNGPKAGSRGLTSLADTFEHVIEELLDEDQKVRPNEENNKDADLYTSRVMLSSQVPLEPPLLFLLEEYKNYLDAANMSMRVRRHSDPARRGELSVCDSISEWVTAADKKTAVDMSGGTVTVLEKVPVSKGQLKQYFYETKCNPMGYTKEGCRGIDKRHWNSQCRTTQSYVRALTMDSKKRIGWRFIRIDTSCVCTLTIKRGR | significant ERK and AKT phosphorylation increase | 237.1 ± 5.0 |
